A word on the melting point: it is the temperature, or range, at which the solid turns liquid.

Values joined by “and” are separate entries in the source; they are usually repeats but may differ in a detail not shown here. Equal values may be shown once.

Take `C[C@H]1O[C@@H](O[C@H]2[C@@H](O)C[C@H](O[C@H]3[C@@H](O)C[C@H](O[C@H]4CC[C@@]5(C)[C@H](CC[C@@H]6[C@@H]5CC[C@]5(C)[C@@H](C7=CC(=O)OC7)CC[C@]65O)C4)O[C@@H]3C)O[C@@H]2C)C[C@H](O)[C@@H]1O` [Digitoxin]: the melting point was found to be 256 °C.

`C[C@H](CCC(=O)O)[C@H]1CC[C@H]2[C@@H]3CC[C@@H]4C[C@H](O)CC[C@]4(C)[C@H]3C[C@H](O)[C@]12C` [deoxycholic acid] came in with a melting point of 174 °C.

As for `CCCCCCCCCCCCCCCCCCCCCCC` [Tricosane], the melting point is 49 °C.

With `COB(OC)OC` [trimethyl borate], the melting point is -34 °C.

The compound `O=C1SCCN1C(=O)c1ccccc1` [3-Benzoyl-1,3-thiazolidin-2-one] had a melting point of 121 °C.

`Cc1nccnc1C` [2,3-dimethylpyrazine]: the melting point was -12 °C.

In turn, `CCOC(=O)CC(C)C` [ethyl isovalerate] displayed a melting point of -99 °C.

`[O-][n+]1onc2cc(Cl)ccc21` [5-chlorobenzofuroxan] had a melting point of 47 °C.

`CCOC(=O)c1cncn1C(C)c1ccccc1` (centres undefined) [etomidate] yielded a melting point of 67 °C.

As to `O=C(O)c1cccc(Br)c1` [3-Bromobenzoic acid], the melting point was 157 °C.

Regarding `CC1(C)OC(=O)CC(=O)O1` [Meldrum's Acid], the melting point was found to be 98 °C.

The compound `COc1ccc(CC#N)c(Cl)c1` [2-chloro-4-methoxyphenylacetonitrile] showed a melting point of 42 °C.

Regarding `COc1ccccc1P(c1ccccc1OC)c1ccccc1OC` [tris(2-methoxyphenyl)phosphine], the melting point is 200 °C.

`ClC(Cl)=C(c1ccc(Cl)cc1)c1ccc(Cl)cc1` [4,4'-DDE]: the melting point was 89 °C.

`COc1ccc(N)c(OC)c1` [2,4-dimethoxyaniline] gave a melting point of 35 °C.

Regarding `N#Cc1ccc[n+]([O-])c1` [3-cyanopyridine 1-oxide], the melting point was 177 °C.

With `CCOC(=O)c1sc2sc(C#N)c(N)c2c1N`, the melting point is 262 °C.

The compound `C=C[C@H]1C[N@@]2CC[C@H]1C[C@H]2[C@H](O)c1ccnc2ccccc12` [(8alpha,9R)-Cinchonan-9-ol] showed a melting point of 200 °C.

`CC1(C)OC(C)(C(O)(Cc2ccccc2)Cc2ccccc2)CCC1C(=O)O` (centres undefined) returned a melting point of 138 °C.

Compound `CCN(CC)c1ccccc1` [N,N-diethylaniline] showed a melting point of -38 °C.

`Cc1ccc(C)c(-c2ccc([N+](=O)[O-])cc2)c1` [2,5-Dimethyl-4'-nitrobiphenyl] came in with a melting point of 98.3 °C.

In turn, `CC(=O)CCc1oc2ccc(NC(C)=O)cc2c1-c1ccc(C)o1` had a melting point of 132 °C.

`Cc1n[nH]cc1-c1ccccc1` [3-methyl-4-phenyl-1h-pyrazole] returned a melting point of 142 °C.

As to `Oc1ccccc1/C=N/n1c(S)nnc1C(F)(F)F`, the melting point is 156 °C.

On to `c1ccc2c(c1)Cc1ccccc1-2` [fluorene], for which the melting point was 114 °C and 116 °C.

`Cc1cc([N+](=O)[O-])ccc1Cl` [2-chloro-5-nitrotoluene]: the melting point was determined as 43 °C.

In turn, `Nc1ccc(C(=O)O)c(O)c1` [p-aminosalicylic acid] returned a melting point of 150 °C.

With `ClC1C(Cl)C(Cl)C(Cl)C(Cl)C1Cl` (centres undefined) [Lindane], the melting point came to 112 °C.

`O=C(O)CN1C(=O)c2ccccc2C1=O` [N-phthaloylglycine] displayed a melting point of 196 °C.

The compound `O=C(O)C(F)(F)C(F)(F)C(F)(F)C(F)(F)C(F)(F)C(F)(F)C(F)(F)C(F)(F)F` [Heptadecafluorononanoic acid] gave a melting point of 66.5 °C.

Take `Nc1ccccc1C(F)(F)F` [2-(trifluoromethyl)aniline]: the melting point was -30 °C and -29 °C.

On to `C=Cc1ccc(C#N)cc1` [p-cyanostyrene], for which the melting point is -15 °C.

Take `CC1(C)C(=O)[C@]2(C)CC[C@H]1C2` [fenchone]: the melting point is 4 °C.

In the case of `N#Cc1cccc2c(N)cccc12` [5-aminonaphthalene-1-carbonitrile], the melting point stood at 137 °C.

The record behind these values is the Bradley open melting point set (2014).
